Where “and” joins values, the source holds several entries; their conditions need not be identical. Identical values can stand only once.

The text below walks through data of PubChem BioAssay AID1963832 (Molecular Pharmacology Branch, DTP, NCI, 2024).

The subject of this experiment is 885724-159-R-J1-PDC complex spheroid viability. Kind of experiment: Anticancer human tumor 885724-159-R-J1-PDC patient-derived pancreatic adenocarcinoma cell line growth inhibition [POLQ]. The settings on record: for viability, T/C: stronger effect = lower value. As for the experimental part:
Multicellular complex tumor spheroid response to Polymerase (POL) inhibitors (novobiocin, ART-558, RP6685) in combination with a variety of drugs and investigational agents in selected tumor cell lines
The POL inhibitors (novobiocin, ART-558, and RP6685) were evaluated both individually and in combination with standard of care and investigational anticancer small molecules within a complex spheroid model of solid tumors. . Complex spheroids include a stromal component modeled by human endothelial cells (HUVEC) and fibroblasts modeled by human mesenchymal stem cells (MSCs). The concentration ranges selected for each drug and investigational agent were based upon clinically achievable concentrations if the clinical Cmax of the agent was known.
Compounds. The drugs and investigational agents: novobiocin (NSC847541), ART-558 (NSC835418), RP-6685 (NSC848927), peposertib (NSC802822), ceralasertib (NSC780249), elimusertib (NSC800525), camonsertib (NSC841442), AZD-1390 (NSC803789), olaparib (NSC753686), talazoparib (NSC767125), rucaparib (NSC756644), sotorasib (NSC818433), MRTX-1133 (NSC836407), SN-38 (NSC673596), topotecan (NSC609699), epotoside (NSC141540), doxorubicin (NSC123127), gemcitabine (NSC613327), 5-fluorouracil (NSC19893), paclitaxel (NSC125973), vemurafenib (NSC761431), MSA-2 (NSC828583), SN-011 (NSC837082), adavosertib (NSC754352), prexasertib (NSC758257), carboplatin (NSC241240) and oxaliplatin (NSC266046), were obtained from the National Cancer Institute (NCI) Developmental Therapeutics Program Chemical Repository (21). The FDA-approved anticancer drug set is available from the Developmental Therapeutics Program at https://dtp.cancer.gov/organization/dscb/obtaining/. […] The stock solutions were prepared in dimethyl sulfoxide (DMSO, Sigma-Aldrich, St. Louis, MO, cat. D2650), except for the platinum compounds which were prepared in saline (Quality Biological, Gaithersburg, MD, cat. 114-055-101), at 800-fold the tested concentration and stored at -70 degrees C prior to their use. All drugs and investigational agents were tested over a range starting from a high concentration at or near the clinical Cmax and decreasing in half-log increments. If the clinical Cmax for an agent had not been determined, the highest concentration tested was 10 microM, except for SN-38, which was tested at a high concentration of 1 microM.
Cell Culture. All cells were maintained in an incubator at 37 degrees C and 5% CO2 with 95% humidity. The PDC lines were cultured according to standard operating procedures established by the NCI PDMR (https://pdmr.cancer.gov). Table 3 of the manuscript, lists the cell lines along with the number of the three cell types plated to form the mct-spheroids and media for tumor cell growth. After thawing, all PDC lines, except 997537-175-T-J1-PDC and 415267-285-R-J2-PDC, were cultured in Matrigel-coated flasks prepared with a working solution of 1X Ham's F-12 nutrient mix, without supplementation (Thermo Fisher Scientific, cat. 11765054), 100 U/mL penicillin-streptomycin (Thermo Fisher Scientific, cat. 15140122), and 2.5% Matrigel (Corning Inc., Corning, NY, cat. 354248) for the first three passages. The two PDC lines 997537-175-T-J1-PDC and 415267-285-R-J2-PDC were cultured on uncoated flasks. The 857933-349-R-J2-PDC line was cultured in 6C/Colon 1B media containing advanced DMEM/F-12 (Thermo Fisher Scientific, cat. 12634028), 10 mM HEPES (Thermo Fisher Scientific, cat. 15630080), 1X GlutaMAX supplement (Thermo Fisher Scientific, cat. 35050061), 0.1 mg/mL primocin (InvivoGen, San Diego, CA, cat. ant-pm-2), 10% defined fetal bovine serum, heat inactivated (HyClone Laboratories Inc., Logan, UT, cat. SH30070.03HI), 50% L-WRN conditioned media (ATCC, cat. CRL-3276), 1.25 mM N-Acetyl-L-cysteine (Sigma-Aldrich, cat. A9165), 10 mM nicotinamide (Sigma-Aldrich, cat. N0636), 1X B-27 supplement (Thermo Fisher Scientific, cat. 17504044), 1X N-2 supplement (Thermo Fisher Scientific, cat. […]

Setting [1] is: compound alone, run of 12/05/2023.
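Note: spheroids exposed to compounds for 7 days.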

Regarding `COc1cc(C2c3cc4c(cc3C(OC3OC5COC(C)OC5C(O)C3O)C3COC(=O)C23)OCO4)cc(OC)c1O` (stereo not given), the viability, T/C (as a rule, the result in the treated group divided by that in the control group, in per cent) runs as follows: (compound 0.0316 µM) 94.8% and 95.3% and 106%; (compound 0.1 µM) 86.5% and 92.2% and 82.3%; (compound 0.316 µM) 75.8% and 85.9% and 68.5%; (compound 1 µM) 64.5% (2×) and 73%; (compound 3.16 µM) 58.4% and 57.7% and 55.9%; (compound 10 µM) 48% and 53.2% and 42.6%. Moreover, where the note is “curve of compound”, the IC50 (usually the concentration that inhibits the measured activity by half) was 8.15 µM and > 10 µM and 4.59 µM.

Turning to `COc1ccc([C@@H](O)c2cc(-c3ncnc4cc(N5CCOCC5)ccc34)c(F)cc2Cl)nn1`, the viability, T/C is 94% and 96% and 96.8% (compound 0.0316 µM); 79.5% and 83.5% and 87.4% (compound 0.1 µM); 86.8% and 78% and 76% (compound 0.316 µM); 71.7% and 68.9% and 70.9% (compound 1 µM); 59% and 58.1% and 55% (compound 3.16 µM); 35.5% and 33% and 38.2% (compound 10 µM). Under “curve of compound”, the IC50 is 4.86 µM and 4.08 µM and 4.45 µM.

In the case of `COc1cccc(OCCCN)c1-c1cc(Nc2cnc(C#N)cn2)n[nH]1`, the viability, T/C (compound 0.00316 µM) is 62.5% and 76.4% and 69.2%; the viability, T/C (compound 0.01 µM) is 46.4% and 49.5% and 54.3%; the viability, T/C (compound 0.0316 µM) was 45.3% and 44.2% and 49.7%; the viability, T/C (compound 0.1 µM) was 42.2% and 45.4% and 51.1%; the viability, T/C (compound 0.316 µM) was 44.9% and 42.6% and 47%; the viability, T/C (compound 1 µM) is 44.4% and 47.1% and 48%. The IC50 (curve of compound) was 0.00782 µM and 0.00969 µM and 0.0326 µM.

As to `COc1cccc2c1C(=O)c1c(O)c3c(c(O)c1C2=O)CC(O)(C(=O)CO)CC3OC1CC(N)C(O)C(C)O1` (stereo not given), the viability, T/C is 72.9% and 74.1% and 66.6% (compound 0.0316 µM); 54.6% and 56% and 97.5% (compound 0.1 µM); 30.8% and 36.2% and 31.9% (compound 0.316 µM); 11.2% and 13.3% and 8.99% (compound 1 µM); 5.6% and 5.49% and 5.32% (compound 3.16 µM); 7.5% and 6.14% and 6.82% (compound 10 µM). Further, the IC50 (curve of compound) was 0.128 µM and 0.146 µM and 0.209 µM.

Take `Cc1cccc(N(C)C(=O)C2C(O)CCN2c2nc(C)cc(C(F)(F)F)c2C#N)c1` (stereo not given): the viability, T/C (compound 0.0316 µM) is 96.2% [middle of 13 runs]; the viability, T/C (compound 0.1 µM) was 97.6% [middle of 13 runs]; the viability, T/C (compound 0.316 µM) is 102% [middle of 13 runs]; the viability, T/C (compound 1 µM) was 100% [middle of 13 runs]; the viability, T/C (compound 3.16 µM) was 99.2% [middle of 13 runs]. The IC50 (compound alone, run of 11/27/2023) is over 10 µM and the IC50 under setting [1] was over 10 µM.

As for `Cn1ncnc1[C@H]1c2n[nH]c(=O)c3cc(F)cc(c23)N[C@@H]1c1ccc(F)cc1`, the viability, T/C was 96.8% and 84.9% and 99.5% (compound 0.000316 µM); 94.3% and 95.2% and 99.7% (compound 0.001 µM); 91.6% and 90.1% and 98.2% (compound 0.00316 µM); 103% and 94.9% and 99.3% (compound 0.01 µM); 97.7% and 93.4% and 103% (compound 0.0316 µM); 83.7% and 84.4% and 85.2% (compound 0.1 µM). In addition, the half-maximal inhibitory concentration (IC50) (curve of compound) is over 0.1 µM.

Regarding `Nc1ccc(C#CCN(C(=O)Cc2ncc(C(F)(F)F)cc2C(F)(F)F)c2ccc(F)cc2)nn1`, the viability, T/C is 94.8% [middle of 13 runs] (compound 0.0316 µM); 93.2% [middle of 13 runs] (compound 0.1 µM); 97% [middle of 13 runs] (compound 0.316 µM); 96.2% [middle of 13 runs] (compound 1 µM); 97.6% [middle of 13 runs] (compound 3.16 µM); 105% [middle of 12 runs] (compound 10 µM). Besides, under setting [1], the IC50 is over 10 µM.

Take `Nc1ccn(C2OC(CO)C(O)C2(F)F)c(=O)n1` (stereo not given): the viability, T/C by setting is: (compound 0.0316 µM) 62.8% and 66.8% and 60.1%; (compound 0.1 µM) 51.6% and 57% and 53.9%; (compound 0.316 µM) 50.6% and 51% and 51.5%; (compound 1 µM) 51.7% and 53% (2×); (compound 3.16 µM) 51.6% and 53.4% and 54.6%; (compound 10 µM) 46% and 42.3% and 39.7%. In addition, the IC50 (curve of compound) was 0.56 µM and 1.16 µM and 4.38 µM.

Take `O=C(c1cc(Cc2n[nH]c(=O)c3ccccc23)ccc1F)N1CCN(C(=O)C2CC2)CC1`: the viability, T/C was 103% and 105% (2×) (compound 0.0316 µM); 97.6% and 102% and 98% (compound 0.1 µM); 97.1% and 109% and 95.8% (compound 0.316 µM); 94% and 107% and 93.8% (compound 1 µM); 93.9% and 95.7% and 87.6% (compound 3.16 µM); 78.1% and 78.9% and 82.2% (compound 10 µM). Moreover, for the setting “curve of compound”, the IC50 is over 10 µM.

Consider `O=c1[nH]cc(F)c(=O)[nH]1`, for which the viability, T/C was 98.3% and 96.3% and 103% (compound 0.0316 µM); 102% and 95.3% and 108% (compound 0.1 µM); 103% and 89.2% and 105% (compound 0.316 µM); 87.9% and 98.7% and 102% (compound 1 µM); 87.6% and 89.9% and 91.7% (compound 3.16 µM); 75% and 75.8% and 71.4% (compound 10 µM). For the same compound, where the note is “curve of compound”, the IC50 was over 10 µM.
